Measured values as given in publication PMC12067741, “Inhibition of SOD1 trimerization is a novel drug target for ALS disease” (Translational Neurodegeneration, 2025).
Entries after “also recorded” stand apart in the source; their conditions may differ.

Legend:
[1] = Pharmacokinetics in mice (compound screening, IV/PO); assay type: in vivo, mouse; conditions: mouse (compound screening), PO3, 20 mg/kg
Protocol: (§1) Fig. S1. Optimized inhibitor reduces SOD1 aggregation. a, Mutant SOD1s induced WT-SOD1 aggregation. Testing the selected chemicals to check the inhibitory effect on SOD1 aggregation .HEK293 cells were transfected with MT-SOD1 vectors (A4V, G 93 A) and treated with selected chemicals (5 mM). After incubation, transfected cells were harvested with TNNI buffer and fixed with 0.04% glutaraldehyde (Glu) for 30min. Samples were separated using SDS-PAGE. b-c, PRG-A-04 inhibited SOD1 inclusions in SK-N-SH cells. (b) Cells expressing MT-SOD1 vectors were treated with PRG-A-04 (5 mM) for 24 hr. After incubation, cells were fixed with 4 % PFA and observed under the fluorescence microscope. (c) Cells with SOD1 inclusions (white arrows; strong intensity of SOD1) were counted by photomicrographs and the percentages were shown with standard deviation (SD). For cell counting, ten fluorescence images were randomly selected. Counting of cells were performed by three independent observers, who were blinded to transfection or chemical treatment group; two-tailed Student’s t-test. NS; Not significant, ****P < 0.001, d, PRG-A- […]
degradationin blood as well as gastro-intestinal tract.IV; intravenous injected group, PO; Per Os administrated group e, […]
show cytotoxicity. To know the toxic effect of PRG-A-04 , human normal fibroblast (f) and neuron cells (g) were incubated with PRG -A-04 for 48 hr dose dependently and measured the viability through MTT assay .“Con” means Dimethyl sulfoxide (DMSO) -treated control . The data are normalized to DMSO-treated cells. n=3 independent experiments; two-tailed Student’s t-test.NS; Not significant, *P < 0.05, **P < 0.01, ***P < 0.005.

[2] = Metabolic stability in liver microsomes; assay type: in vitro ADME; conditions: human liver microsomes
[3] = tested on: MT-SOD1 inclusions in SK-N-SH cells; assay: SOD1 inclusions by immunofluorescence in SK-N-SH cells; assay type: cell-based; conditions: SK-N-SH cells expressing MT-SOD1, 24 h
Protocol: Cells on coverslips were washed with PBS, fixed with 4% PFA for 30 min at room temperature and then permeabilized in 0.1% Triton X-100/PBS for 10 min. After incubation in blocking solution (goat serum diluted 1:200 in PBS) for 1 h, cells were incubated with primary antibodies in blocking buffer for overnight at 4 °C. Finally, the cells were incubated with FITC- or Rhodamine-conjugated secondary antibody at 4 °C for 4 h. The nucleus was stained with 4, 6-diamidino-2-phenylindole and the endoplasmic reticulum (ER) was stained using the ER-Tracker Red dye for 10 min. Cells were washed three times with PBS, then the coverslips were mounted with the mounting solution (H-5501; Vector Laboratories, Burlingame, CA) and observed by fluorescence microscopy using Zeiss Apotome 2 (Software; Axiovision 4.8, Baden-Württemberg, Germany) and CELENA X (Logos Biosystems, Annandale, VA).
Cells with SOD1 aggregation were counted in the fluorescent images. Depending on the intensity of SOD1, cells with SOD1 aggregates were counted in randomly selected fields and quantified as a percentage to the total cells counted. In addition, to calculate the colocalization of the three colors of SOD1, we counted the cells where the three colored images overlapped at a point of high intensity. […]
Fig. S1. […] After incubation, cells were fixed with 4 % PFA and observed under the fluorescence microscope. […]

Plasma stability [4] = assay type: in vitro ADME; conditions: CD-1 mouse plasma, after 120 min of incubation
Plasma stability [5] = assay type: in vitro ADME; conditions: SD rat plasma, after 120 min of incubation
SK-N-SH cells = assay: Cell viability (MTT); assay type: cell-based; conditions: neuron cell line, 48 hr
Protocol: (§2) Cells were incubated with 0.5 mg/mL of MTT solution (475989; Merck, Darmstadt, Germany) for 4 h at 37 °C. After removing excess solution and washing with PBS, the precipitated materials were dissolved in 200 μL DMSO and quantified by measuring absorbance at 540 nm.
as §1, with “(b) Cells expressing MT-SOD1 vectors were treated with PRG-A-04 (5 mM) for 24 hr.” left out, “selected.” for “selected. Counting of cells were performed by three independent observers, who were blinded to transfection or chemical treatment group; two-tailed Student’s t-test. NS; Not significant, ****P < 0.001, d, PRG-A-”
(§3) show cytotoxicity. To know the toxic effect of PRG-A-04 , human normal fibroblast (f) and neuron cells (g) were incubated with PRG -A-04 for 48 hr dose dependently and measured the viability through MTT assay .“Con” means Dimethyl sulfoxide (DMSO) -treated control . […]

human normal fibroblast = assay: Cell viability (MTT); assay type: cell-based; conditions: 48 hr
Protocol: as §2
as §1, with “(b) Cells expressing MT-SOD1 vectors were treated with PRG-A-04 (5 mM) for 24 hr.” left out, “selected.” for “selected. Counting of cells were performed by three independent observers, who were blinded to transfection or chemical treatment group; two-tailed Student’s t-test. NS; Not significant, ****P < 0.001, d, PRG-A-”
as §3

[6] = Metabolic stability in liver microsomes; assay type: in vitro ADME; conditions: beagle dog liver microsomes

## COc1cc(C=CCOC2Cc3cc4ccc(=O)oc4cc3OC2(C)C)ccc1[N+](=O)[O-] (centres unmarked) [PRG-A-04]
[1]
  bioavailability: 63.78%
[2]
  extent of metabolism in liver microsomes: moderately metabolized
[3]
  effect on SOD1 inclusions: suppressed SOD1 inclusions
Plasma stability [4]
  stability in plasma: stable
Plasma stability [5]
  stability in plasma: stable
SK-N-SH cells
  cytotoxicity: without severe cytotoxicity
Human normal fibroblast
  cytotoxicity: without severe cytotoxicity
[6]
  extent of metabolism in liver microsomes: moderately metabolized; also recorded: metabolized significantly
